The test system of the assay is 3T3-L1 pre-adipocyte cell line. The assay is described as follows: Mouse 3T3-L1 pre-adipocyte cells differentiation assay (Nile Red lipid fluorescence). It is filed as cell-based. As to conditions: Mus musculus, 48 h; % of adipogenesis inhibition; compound at 25 μM in differentiation medium (2 days) and insulin medium (2 days); 3T3-L1 cells; read-out: Adipogenesis inhibition score. As for the experimental part:
Mouse 3T3-L1 Pre-Adipocyte Cells Differentiation Assay
Cell Culture and Treatment
Mouse (Mus musculus) 3T3-L1 pre-adipocyte cell line was purchased at ATCC.
Induction of adipocyte differentiation was performed according to Choi K C et al “The role of ghrelin and growth hormone secretagogues receptor on rat adipogenesis” Endocrinol 144: 754-759, 2003 with some modifications.
Briefly, 3T3-L1 pre-adipocytes were seeded in 24 well culture plates at a density of 3×10^4 cells/well in growth medium (DMEM containing 4.5 g/L glucose, 1 mM sodium pyruvate, 2 mM L-glutamine, 100 μg/mL streptomycin/penicilline, 25 mM HEPES and 10% calf serum (heat inactivated)). The resulting solution is used as a blank in the measure of fluorescence described below.
Cells were incubated at 37° C., 95% humidity and 10% CO2. Two days after reaching confluence (ninth day) growth medium was changed to differentiation medium (DMEM containing 4.5 g/L glucose, 2 mM L-glutamine, 100 μg/mL streptomycin/penicilline, 25 mM HEPES, 10% FBS (heat inactivated), 1 mM sodium pyruvate, 0.5 mM 3-isobutyl-1-methylxanthine, 0.25 μM dexamethasone, and 5 μg/mL insulin). After 48 h, the medium was replaced by insulin medium (DMEM containing 4.5 g/L glucose, 1 mM sodium pyruvate, 2 mM L-glutamine, 100 μg/mL streptomycin/penicillin, 25 mM HEPES, 10% FBS (inactivated) and 5 μg/mL insulin) for another 48 hours, and then incubated in 10% FBS/DMEM (same as insulin medium without insulin) for 4 days up to their complete differentiation.
The compounds to be tested were added at the 25 μM concentration to the differentiation medium (2 days) and to the insulin medium (2 days).
After incubation, the intracellular stored lipids were quantified by measuring the fluorescence after staining the lipids with the fluorescent dye Nile Red (9-diethylamino-5-benzo[α]phenoxazinone).
To carry out said lipid measurement, cells were lysed in hypotonic buffer (1 mM Tris-HCl pH=7.5) containing 2 μg/ml of Nile Red (9-diethylamino-5-benzo[t]phenoxazinone) for 15 min at 37° C.
Lysed cells were homogenized and TAG content was determined by monitoring Nile Red fluorescence in a laser spectral fluorometer. Excitation 522 nm; Emission 574 nm.
For each compound to be tested the following fluorescence measures were recorded: • FC: Fluorescence of a sample of lysed cells incubated in the presence of the compound in both the differentiation medium and in the insulin medium. • FB: Fluorescence of a blank sample of sample of pre-adipocytes in growth medium. • FNC: Fluorescence of a sample of lysed cells incubated with the differentiation medium and insulin medium not comprising any additional compound.
The inhibition of adipogenesis in the presence of the tested compounds is calculated from the following equation: % of adipogenesis inhibition=100−[100×((FC−FB)/(FNC−FB))]
% of adipogenesis inhibition (reflecting the activity against 3T3-L1 cell differentiation into adipocytes) was determined for each compound, and the effect at the […] has been chosen as the most representative value as to be shown in the structure-activity table.

The text below walks through data of US10294269B2, “Dipeptidyl ketoamide compounds and their use for the treatment and/or prevention of fat accumulation” (LANDSTEINER GENMED, S.L., priority 2014, dated 2019).

In the case of `Cc1ccc(C(=O)N[C@@H](CC(C)C)C(=O)NC(Cc2ccccc2)C(=O)C(=O)NC(C)(C)C)cn1` (stereo partly drawn) [Example 25, N-((2S)-1-((4-(tert-butylamino)-3,4-dioxo-1-phenylbutan-2-yl)amino)-4-methyl-1-oxopentan-2-yl)-6-methylnicotinamide], the inhibition – broadly, the percentage by which the read-out fell short of the control – at 25 µM was 30 to 80%.
